The values below are quoted from earlier work in the PKSmart pharmacokinetics tables (Seal et al. 2025).

This series can be described thus: Lombardo, Berellini, Obach 2018, Drug Metab Dispos 46:1466, doi 10.1124/dmd.118.082966. The following applies: human; for MRT / Vd / clearance / half-life: in vivo, iv; for fraction unbound: plasma.

*1 amine or outer side, *2 acyl side, *3 side chain or, on linkers, in order; H or OH if unused. Where a SMILES comes first, the peptide text is derived from it. Bridges are numbered along the chain shown (N, C = ends). [ ]: non-standard residue; d: D form. ξ: configuration not given here. ξPro(4R-OH) = O=C(O)C1C[C@@H](O)CN1; ξ2Thi = NC(Cc1cccs1)C(=O)O; ξR = N=C(N)NCCCC(N)C(=O)O; Iva = CC[C@](C)(N)C(=O)O; ξF = NC(Cc1ccccc1)C(=O)O; X3 = O=C(CCC[*:2])[*:1]; ξN = NC(=O)CC(N)C(=O)O; ξC = NC(CS)C(=O)O

`CC1(C)S[C@@H]2C(NC(=O)C(C(=O)O)c3ccccc3)C(=O)N2C1C(=O)O` (stereo not given in full): the MRT was 1.5 h, the distribution volume (Vd) was 0.17 L/kg, the clearance is 1.9 mL/min/kg and the half-life is 1.1 h.

Regarding `CC(C)(N)CC(=O)NC1CCc2ccccc2N(Cc2ccc(-c3ccccc3-c3nnn[nH]3)cc2)C1=O` (stereo not given), the mean residence time MRT was 1.1 h, the volume of distribution (Vd) is 0.2 L/kg, the clearance was 3.05 mL/min/kg and the half-life was 3.8 h. The free fraction (fraction unbound) is 0.06.

Turning to `CCCc1nn(C)c2c(=O)[nH]c(-c3cc(S(=O)(=O)N4CCN(C)CC4)ccc3OCC)nc12`, the MRT was 2.5 h, the Vd was 1.36 L/kg and the half-life was 2.2 h.

For the molecule `O=C(NCCN1CCN=C1c1ccncc1)Nc1ccc(C(=O)O)cc1`, the MRT was 3.52 h, the Vd is 0.35 L/kg, the clearance was 1.67 mL/min/kg and the half-life was 4.9 h.

With `COCC(NC(C)=O)C(=O)NCc1ccccc1` (stereo not given), the MRT was 17.2 h, the Vd is 0.58 L/kg, the clearance is 0.57 mL/min/kg and the half-life was 12.3 h. The fraction unbound is 0.85.

As for `C[C@H](/C=C/[C@H](C)C(C)(C)O)[C@H]1CC[C@H]2/C(=C/C=C3C[C@@H](O)C[C@H](O)C3)CCC[C@]12C`, the MRT is 7.7 h, the Vd was 0.41 L/kg, the clearance was 0.89 mL/min/kg and the half-life is 5.3 h.

In the case of `CC(N)CCCC(C)(C)O` (stereo not given), the MRT is 3.24 h, the Vd is 2.14 L/kg, the clearance is 10.7 mL/min/kg and the half-life was 2.5 h.

As for `CN1CCN(C(c2ccccc2)c2ccccc2)CC1`, the MRT was 15.5 h, the Vd is 16.5 L/kg, the clearance was 14.5 mL/min/kg and the half-life is 13.5 h.

As for `C[C@]12CC[C@@H]3c4ccc([O-])cc4C[C@H](CCCCCCCCC[S+](O)CCCC(F)(F)C(F)(F)F)C3[C@@H]1CC[C@@H]2O` (stereo not given in full), the MRT was 5.86 h, the Vd was 4.15 L/kg, the clearance was 11.8 mL/min/kg and the half-life is 16 h. Further, the fraction unbound was 0.01.

`Cc1cc(O)c2c(=O)c3c(O)cc(O)c4c5c(O)cc(O)c6c(=O)c7c(O)cc(C)c8c1c2c(c34)c(c78)c65`: the MRT was 32 h, the volume of distribution (Vd) was 0.25 L/kg, the clearance was 0.13 mL/min/kg and the half-life is 42 h.

For the molecule `CC[C@]1(C)NC(=O)C(Cc2cccs2)NC(=O)C(Cc2ccccc2)NC(=O)CCCSCC(C(=O)N2C[C@H](O)CC2C(=O)NC(CCCNC(=N)N)C(=O)NCC(N)=O)NC(=O)C(CC(N)=O)NC1=O` (stereo partly drawn) ([ξF][ξ2Thi][Iva][ξN][ξC][ξPro(4R-OH)][ξR]G-NH2; linker N-5 via X3), the MRT is 5.63 h, the Vd is 0.31 L/kg, the clearance was 0.87 mL/min/kg and the half-life was 4.28 h.

Turning to `O=[N+]([O-])O[C@H]1CO[C@H]2[C@@H]1OC[C@H]2O`, the MRT was 2.3 h, the Vd was 0.86 L/kg, the clearance was 6.2 mL/min/kg and the half-life is 1.9 h.

As to `Cc1cnc(NCCCN(C)C)c2c1[nH]c1ccc3cc(O)ccc3c12`, the MRT is 11 h, the Vd was 11 L/kg, the clearance is 18 mL/min/kg and the half-life was 19 h.

For the molecule `CCn1cnc(C(=O)NC)c1C(=O)NC`, the MRT was 1 h, the Vd is 0.73 L/kg, the clearance is 12.1 mL/min/kg and the half-life was 0.83 h. Besides, the unbound share (fraction unbound) was 0.92.

For the molecule `CC1(C)S[C@@H]2C(NC(=O)C(c3ccccc3)S(=O)(=O)O)C(=O)N2C1C(=O)O` (stereo not given in full), the MRT is 1.6 h, the Vd is 0.15 L/kg, the clearance was 1.6 mL/min/kg and the half-life was 1.2 h. For the same molecule, the fraction unbound was 0.5.

Turning to `CN(C)CCCOc1nn(Cc2ccccc2)c2ccccc12`, the MRT was 11.4 h, the Vd is 1.53 L/kg, the clearance is 2.28 mL/min/kg and the half-life was 8.1 h. In addition, the fraction unbound was 0.8.

On to `CN(C)CC/C=C1\c2ccccc2COc2ccccc21`, for which the MRT is 15 h, the volume of distribution (Vd) was 12 L/kg, the clearance is 14 mL/min/kg and the half-life was 15 h.

On to `Cc1cn[nH]c1`, for which the MRT was 7.94 h, the Vd is 0.35 L/kg, the clearance is 0.73 mL/min/kg and the half-life is 4.42 h.

For the molecule `C[C@@](O)(/C=C/[C@H]1CC=CC(=O)O1)[C@@H](C[C@@H](O)\C=C/C=C\C=C\CO)OP(=O)(O)O`, the MRT is 1.2 h, the Vd is 0.086 L/kg, the clearance was 1.2 mL/min/kg and the half-life was 1.5 h.

Regarding `Cn1c(=N)c(NC(=O)NCCN)cn1CC1=C(C(=O)O)N2C(=O)C(=NC(=O)C(NOC(C)(C)C(=O)O)c3nsc(N)n3)[C@H]2SC1` (stereo not given in full), the mean residence time MRT is 2.39 h, the Vd is 0.17 L/kg, the clearance was 1.16 mL/min/kg and the half-life was 2.58 h. Also, the fraction unbound was 0.81.

Take `CCCCc1oc2ccc(NS(C)(=O)=O)cc2c1C(=O)c1ccc(OCCCN(CCCC)CCCC)cc1`: the MRT is 10 h, the Vd is 20 L/kg, the clearance was 33.3 mL/min/kg and the half-life was 16 h. Besides, the fraction unbound was 0.02.

Take `Nc1nc(OCc2cc(Br)cs2)c2[nH]cnc2n1`: the clearance is 21.6 mL/min/kg and the half-life was 2.92 h.

With `CCCC(=O)N1CCCN(c2nc(N)c3cc(OC)c(OC)cc3n2)CC1`, the MRT was 2.5 h, the Vd was 0.72 L/kg, the clearance is 4.8 mL/min/kg and the half-life was 2 h. Besides, the fraction unbound is 0.06.

For the molecule `CON=C(C(=O)NC1C(=O)N2C(C(=O)O)=C(CN3C=CN4NC=CC=C34)CS[C@H]12)c1nsc(N)n1` (stereo not given in full), the MRT is 2 h, the Vd is 0.24 L/kg, the clearance is 2.1 mL/min/kg and the half-life is 1.7 h. The unbound share (fraction unbound) is 0.74.

Consider `COCC(=O)Nc1c(I)c(C(=O)NCC(O)CO)c(I)c(C(=O)N(C)CC(O)CO)c1I` (stereo not given), for which the MRT was 2.6 h, the Vd is 0.22 L/kg, the clearance was 1.4 mL/min/kg and the half-life was 2.6 h. For the same molecule, the fraction unbound is 0.99.

For the molecule `CCCN[C@H]1CCc2nc(N)sc2C1`, the MRT was 16.1 h, the Vd is 7 L/kg, the clearance is 7.2 mL/min/kg and the half-life is 12.4 h. Further, the fraction unbound was 0.85.

`NC(=O)N1C(=O)C(C(=O)c2cccs2)c2cc(Cl)ccc21` (stereo not given): the MRT is 31.6 h, the volume of distribution (Vd) was 0.11 L/kg, the clearance was 0.058 mL/min/kg and the half-life was 22.7 h. Also, the fraction unbound was 0.01.

On to `CC(=O)N[C@H]1[C@H]([C@H](O)[C@H](O)CO)OC(C(=O)O)=C[C@@H]1NC(=N)N`, for which the MRT was 2.4 h, the Vd is 0.23 L/kg, the clearance was 1.6 mL/min/kg and the half-life is 1.7 h.

For the molecule `Cc1c(CN(C)C(=O)C=Cc2cnc3c(c2)CCC(=O)N3)oc2ccccc12`, the MRT was 8.4 h, the Vd was 0.43 L/kg, the clearance is 0.9 mL/min/kg and the half-life was 6.4 h.

Consider `C/C(=C\c1csc(C)n1)[C@@H]1C[C@@H]2O[C@]2(C)CCC[C@H](C)[C@H](O)C(C)C(=O)C(C)(C)[C@@H](O)CC(=O)O1` (stereo not given in full), for which the MRT was 111 h, the volume of distribution (Vd) was 14.4 L/kg, the clearance is 2.17 mL/min/kg and the half-life was 92.3 h. Further, the fraction unbound is 0.22.

Turning to `CN(C)C(=O)Oc1cccc([N+](C)(C)C)c1`, the mean residence time MRT is 1.3 h, the Vd was 0.74 L/kg, the clearance was 9.2 mL/min/kg and the half-life was 1.3 h.

For the molecule `CNC(=O)c1cnn(-c2nc(N)c3ncn([C@@H]4O[C@H](CO)[C@@H](O)[C@H]4O)c3n2)c1`, the MRT was 2.1 h, the Vd was 0.94 L/kg, the clearance is 7.3 mL/min/kg and the half-life is 2 h. The fraction unbound was 0.7.
